Measured values taken from the supplement of paper PMC10307832.

Assays:
Experiment in all cases: relative viability (nuclei count vs DMSO), 5 days (fraction); higher = more cells survive
Bleomycin + Palbociclib = compound: CC1=C(N=C(N=C1N)[C@H](CC(=O)N)NC[C@@H](C(=O)N)N)C(=O)N[C@@H]([C@H](C2=CN=CN2)OC3C(C(C(C(O3)CO)O)O)OC4C(C(C(C(O4)CO)O)OC(=O)N)O)C(=O)N[C@H](C)[C@H]([C@H](C)C(=O)N[C@@H]([C@@H](C)O)C(=O)NCCC5=NC(=CS5)C6=NC(=CS6)C(=O)NCCC[S+](C)C)O [Bleomycin] + CC(=O)c1c(C)c2cnc(Nc3ccc(N4CCNCC4)cn3)nc2n(C2CCCC2)c1=O [Palbociclib] (partner 0.5 µM); settings: main component drawn
Outline: (§1)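 Relative viability was taken as the ratio of nuclei in treated wells to nuclei in vehicle wells. Lung cancer cell lines in 1536-well plates received compounds by pin tool one day after seeding, either one drug alone or a fixed anchor-drug dose plus five library-drug doses (not always all listed) in √10 steps. Nuclei were counted on 4× images after 5 days of treatment, and values are medians of duplicate plates.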

Etoposide + Palbociclib = compound: COc1cc([C@@H]2c3cc4c(cc3[C@@H](O[C@@H]3O[C@@H]5CO[C@@H](C)O[C@H]5[C@H](O)[C@H]3O)[C@H]3COC(=O)[C@H]23)OCO4)cc(OC)c1O [Etoposide] + CC(=O)c1c(C)c2cnc(Nc3ccc(N4CCNCC4)cn3)nc2n(C2CCCC2)c1=O [Palbociclib] (partner 0.5 µM)
Outline: as §1

Etoposide + Pictilisib = compound: COc1cc([C@@H]2c3cc4c(cc3[C@@H](O[C@@H]3O[C@@H]5CO[C@@H](C)O[C@H]5[C@H](O)[C@H]3O)[C@H]3COC(=O)[C@H]23)OCO4)cc(OC)c1O [Etoposide] + CS(=O)(=O)N1CCN(Cc2cc3nc(-c4cccc5[nH]ncc45)nc(N4CCOCC4)c3s2)CC1 [Pictilisib] (partner 1 µM)
Outline: as §1

Etoposide + Olaparib = compound: COc1cc([C@@H]2c3cc4c(cc3[C@@H](O[C@@H]3O[C@@H]5CO[C@@H](C)O[C@H]5[C@H](O)[C@H]3O)[C@H]3COC(=O)[C@H]23)OCO4)cc(OC)c1O [Etoposide] + O=C(c1cc(Cc2n[nH]c(=O)c3ccccc23)ccc1F)N1CCN(C(=O)C2CC2)CC1 [Olaparib] (partner 8 µM)
Outline: as §1

Cell Line	relative viability (Bleomycin + Palbociclib; first compound 0.01 µM)	relative viability (Bleomycin + Palbociclib; first compound 0.03162 µM)	relative viability (Bleomycin + Palbociclib; first compound 0.1 µM)	relative viability (Bleomycin + Palbociclib; first compound 0.3162 µM)	relative viability (Bleomycin + Palbociclib; first compound 1 µM)	relative viability (Etoposide + Palbociclib; first compound 0.01 µM)	relative viability (Etoposide + Palbociclib; first compound 0.03162 µM)	relative viability (Etoposide + Palbociclib; first compound 0.1 µM)	relative viability (Etoposide + Palbociclib; first compound 0.3162 µM)	relative viability (Etoposide + Palbociclib; first compound 1 µM)	relative viability (Etoposide + Pictilisib; first compound 0.01 µM)	relative viability (Etoposide + Pictilisib; first compound 0.03162 µM)	relative viability (Etoposide + Pictilisib; first compound 0.1 µM)	relative viability (Etoposide + Pictilisib; first compound 0.3162 µM)	relative viability (Etoposide + Pictilisib; first compound 1 µM)	relative viability (Etoposide + Olaparib; first compound 0.01 µM)	relative viability (Etoposide + Olaparib; first compound 0.03162 µM)	relative viability (Etoposide + Olaparib; first compound 0.1 µM)	relative viability (Etoposide + Olaparib; first compound 0.3162 µM)	relative viability (Etoposide + Olaparib; first compound 1 µM)
201T	0.397	0.32	0.384	0.311	0.336	0.366	0.35	0.325	0.349	0.385	0.677	0.767	0.652	0.63	0.445	0.818	0.804	0.771	0.633	0.384
A549											0.49	0.432	0.221	0.0914	0.0659	0.32	0.209	0.103	0.0476	0.037
A-427	0.458	0.453	0.447	0.276	0.256	0.51	0.479	0.486	0.378	0.282	0.726	0.817	0.507	0.469	0.169	0.715	0.83	0.588	0.298	0.221
ABC-1	0.467	0.822	0.789	0.512	0.433	0.572	0.71	0.529	0.515	0.419	0.765	0.711	0.386	0.345	0.228	0.79	0.873	0.663	0.607	0.443
BEN	0.482	0.473	0.452	0.444	0.408	0.491	0.487		0.454	0.539	0.477	0.62		0.545	0.376	0.938	1.01		0.936	0.672
CAL-12T	0.309	0.365	0.232	0.116	0.192	0.346	0.505	0.299	0.306	0.285	0.508	0.438	0.323	0.391	0.258	0.716	0.623	0.693	0.368	0.213
COR-L23	0.184	0.237	0.151	0.115	0.0887	0.23	0.27	0.27	0.261	0.146	0.733	0.726	0.401	0.418	0.122	0.368	0.294	0.375	0.223	0.169
COR-L 105	0.389	0.37	0.435	0.392	0.395	0.423	0.41	0.383	0.394	0.366	0.374	0.395	0.337	0.327	0.335	0.719	0.859	0.701	0.572	0.654
Calu-6											0.841	0.908	0.764	0.457	0.25	0.585	0.547	0.505	0.274	0.202
ChaGo-K-1	0.847	0.831	0.862	0.512	0.386	0.929	0.952	0.682	0.289	0.222	0.815	0.616	0.387	0.265	0.199	0.399	0.44	0.332	0.219	0.179
EBC-1											0.362	0.384	0.218	0.287	0.156	0.641	0.689	0.532	0.405	0.266
EKVX	0.366	0.366	0.299	0.209	0.189	0.358	0.434	0.21	0.375	0.282	0.447	0.429	0.208	0.309	0.241	0.832	0.955	0.658	0.647	0.293
EMC-BAC-2	0.378	0.433	0.414	0.333	0.293	0.495	0.49	0.399	0.321	0.254	0.511	0.515	0.413	0.27	0.164	0.443	0.413	0.352	0.249	0.214
EPLC-272H	0.329	0.311	0.311	0.213	0.218	0.359	0.284	0.326	0.339	0.304	0.345	0.371	0.281	0.278	0.233	0.833	0.685	0.704	0.474	0.254
H3255	0.324	0.324	0.283	0.312	0.279	0.331	0.334	0.351	0.315	0.281	0.498	0.499	0.381	0.411	0.298	0.524	0.571	0.588	0.379	0.286
HARA	0.219	0.291	0.252	0.188	0.197	0.242	0.335	0.245	0.269	0.203	0.3	0.545	0.255	0.449	0.086	0.698	0.764	0.652	0.376	0.206

Cell Line	relative viability (Bleomycin + Palbociclib; first compound 0.01 µM)	relative viability (Bleomycin + Palbociclib; first compound 0.03162 µM)	relative viability (Bleomycin + Palbociclib; first compound 0.1 µM)	relative viability (Bleomycin + Palbociclib; first compound 0.3162 µM)	relative viability (Bleomycin + Palbociclib; first compound 1 µM)	relative viability (Etoposide + Palbociclib; first compound 0.01 µM)	relative viability (Etoposide + Palbociclib; first compound 0.03162 µM)	relative viability (Etoposide + Palbociclib; first compound 0.1 µM)	relative viability (Etoposide + Palbociclib; first compound 0.3162 µM)	relative viability (Etoposide + Palbociclib; first compound 1 µM)	relative viability (Etoposide + Pictilisib; first compound 0.01 µM)	relative viability (Etoposide + Pictilisib; first compound 0.03162 µM)	relative viability (Etoposide + Pictilisib; first compound 0.1 µM)	relative viability (Etoposide + Pictilisib; first compound 0.3162 µM)	relative viability (Etoposide + Pictilisib; first compound 1 µM)	relative viability (Etoposide + Olaparib; first compound 0.01 µM)	relative viability (Etoposide + Olaparib; first compound 0.03162 µM)	relative viability (Etoposide + Olaparib; first compound 0.1 µM)	relative viability (Etoposide + Olaparib; first compound 0.3162 µM)	relative viability (Etoposide + Olaparib; first compound 1 µM)
HCC-15	0.711	0.686	0.648	0.343	0.285	0.623	0.695	0.828	0.468	0.244	0.758	0.713	0.428	0.292	0.141	0.699	0.613	0.629	0.266	0.162
HCC-44	0.861	0.821	0.64	0.455	0.382	0.99	0.94	1.02	0.947	0.701	0.529	0.601	0.531	0.589	0.275	1.02	1.04	1.04	0.918	0.543
HCC-78	0.522	0.533	0.412	0.4	0.463	0.403	0.522	0.534	0.402	0.378	0.218	0.202	0.144	0.188	0.15	0.679	0.795	0.553	0.259	0.235
HCC-366	0.19	0.155	0.106	0.0548	0.0409	0.341	0.375	0.257	0.071	0.0568	0.198	0.188	0.0748	0.0491	0.0362	0.292	0.304	0.217	0.0515	0.0449
HCC-827	0.46		0.611	0.243	0.18	0.418	0.475	0.341	0.161	0.156	1.03	0.878	0.564	0.479	0.366	0.685	0.623	0.43	0.16	0.164
HOP-62	0.249	0.259	0.285	0.167	0.125	0.408	0.478	0.464	0.356	0.273	0.796	1.01	0.321	0.448	0.149	0.48	0.478	0.557	0.197	0.215
IA-LM											0.398	0.31	0.236	0.282	0.138	0.674	0.822	0.771	0.681	0.441
LC-2-ad	0.454	0.541	0.421	0.3	0.31	0.52	0.509	0.557	0.455	0.452	0.448	0.595	0.318	0.237	0.16	0.349	0.692	0.771	0.412	0.274
NCI-H522	0.904	0.829	0.76	0.386	0.4	0.926	0.988	0.849	1.16	0.797						0.593	0.724	0.811	0.59	0.539
NCI-H596											0.398	0.427		0.375	0.36	0.64	0.698	0.724	0.537	0.561
NCI-H1299											0.777	0.672	0.641	0.644	0.332	0.954	0.964	0.936	0.833	0.65
NCI-H1563											0.661	0.653	0.61	0.501	0.555					
NCI-H1648	0.217	0.32	0.27	0.27	0.245		0.289	0.211	0.297	0.265							0.885	0.758	0.757	0.358
NCI-H1703											0.234	0.313	0.269	0.214	0.171	0.366	0.465	0.424	0.246	0.179
NCI-H2342	0.553	0.546	0.519	0.488	0.433	0.463	0.542	0.423	0.425	0.331						0.474	0.398	0.267	0.208	0.211
SW 900	0.502	0.503	0.355	0.214	0.222	0.585	0.503	0.593	0.492	0.263						0.913	0.924	0.968	0.359	0.224
